One data set deals with red blood cells (RBCs). The data set can be described thus: In vitro hemolysis assay. In kind it is cell-based, SD rats. The conditions noted are these: 37 °C, 1 h. The protocol: The hemocompatibility of F-Pt/M was investigated by hemolysis assay (Valenzuela-Oses et al., [2017]). Fresh SD rats blood was diluted by physiological saline, and red blood cells (RBCs) were collected by centrifugation at 1,200 rpm for 5 min. Following carefully washing and diluting, RBC suspension in normal saline (v/v, 2%) was prepared for hemolysis study. Pt loaded F-Pt/M and free Pt at different drug concentrations were added and mixed by vortex. Then, the samples were incubated at 37 °C for 1 h and after that were centrifuged at 3,000 rpm for 10 min. The supernatant was collected and spectrophotometrically measured on a microplate plate reader (Varioskan LUX, Thermo Scientific Inc., Vantaa, Finland) at 540 nm. Double distilled water and normal saline were employed as positive and negative control, respectively. The hemolysis ratio (HR) of RBCs was calculated using the following equation: (4) HR (%) = (As– A0)/(A100– A0) × 100
Where, As is the absorbance of sample, A0 is the absorbance of negative control and A100 is the absorbance of positive control.

Details of data set [1]: method as in Liu et al., 2020. Particulars: crude Pt; ref Liu et al., 2020; cited from earlier work.
Data set [2] in a line: Brain targeting and brain distribution study in rats. In kind it is in vivo, SD rats. The conditions noted are these: single i.v. 3 mg/kg; for Cmax / Tmax / half-life: male, SD, rat, iv. On the procedure:
Male SD rats weighing 200–250 g (Experimental Animal Center of Dalian Medical University, China) were maintained in standard conditions on a 14 h light/10 h dark cycle provided with food and water ad libitum prior to experimental procedures. All animal experimental protocols were conducted with an approval by the Institutional Animal Care and Use Committee at Dalian Medical University, Dalian, China (Ethics Committee approval number: SCXK 2018-0003) as well as in accordance with the recommendations and policies of the National Institutes of Health (NIH) guide for the care and use of laboratory animals (NIH Publications No. 8023, revised 1978).
Rats were randomly divided into two groups of 24 animals each. Each group received either freshly prepared control free Pt solution in DMSO (10%) in saline solution or formulation of F-Pt/M at a dose equivalent to 3 mg/kg of drug intravenously through lateral tail vein. From each group, three rats were sacrificed at intervals of 5, 15, 30, 45, 60, 90, 120 and180 min post dose. At each time point, blood sample was withdrawn and centrifuged at 3,500 rpm at 4 °C for 10 min. At the same time, the brain sample was harvested, weighed, and homogenized in PBS after cardiac perfusion with 0.9% normal saline solution. Samples were stored at −80 °C until analysis.
Pt from both brain and plasma samples was extracted by liquid-liquid extraction method. Briefly, 20 µL of internal standard working solution (resveratrol, 250 ng/ml) was added to 200 µL aliquot of plasma or brain sample. After 30 seconds of vortexing, 1 mL of extraction solvent, methyl tertiary butyl ether (MTBE) was added. Afterwards, the sample was mixed for 1 min plus centrifugation at 1,000 rpm for 5 min, the supernatant organic layer was carefully transferred and dried using nitrogen gas with gentle heat at 40 °C. The residue was reconstituted with 400 µL of mobile phase and centrifuged at 12,000 rpm for 10 min. The supernatant was transferred to an auto-sampler vial and 10 µL was then injected into the LC-MS/MS system for analysis. An LC-MS/MS analysis method reported by Ferrer (Ferrer et al., [2005]) was employed for the determination of Pt concentration.
Pharmacokinetic parameters, such as Cmax (maximum drug concentration), Tmax (the time to Cmax) and AUC0-t (area under plasma concentration-time curve), were calculated by DAS 2.0 (Drug and Statistics ver 2.0, China). To examine the blood-brain barrier penetration (P) of Pt, the following formula was employed (Yang et al., [2021]): (5) P=AUCbrain/AUCplasma
For brain targeting evaluation, DTI (drug targeting index) was determined using the following equation (Katekar et al., [2020]): (6) DTI = (AUCbrain/AUCplasma)test/(AUCbrain/AUCplasma)control

The nature of data set [3]: In vitro drug release by dialysis method. Type of data set: physicochemical. The conditions noted are these: PBS pH 7.4 containing 0.3% Tween 80. On the procedure: With free Pt acetone solution as control, in vitro release of Pt from F-Pt/M formulation was studied by the dialysis method (Khan et al., [2020]; Rubab et al., [2021]; Yang et al., [2021]). Briefly, 1 mL of samples, equivalent to 0.8 mg drug, were filled into dialysis bags (molecular weight cutoff: 3500 Da) and dialyzed against 1,000 mL of phosphate buffer solution of pH values 7.4 (containing 0.3% Tween 80) to mimic drug release in normal tissues/blood. At the desired time intervals, 1 mL of release medium was withdrawn and replaced with 1 mL of fresh medium. The amount of released Pt was measured by spectrophotometer (Thermo Scientific Inc., Finland) with excitation wavelength at 330 nm and emission wavelength at 374 nm.
In order to understand the kinetic model of Pt release from F-Pt/M, zero-order, first-order and Higuchi models were fitted, and the highest adjusted R^2 value was used as the criterion for model selection.

A further data set relates to A172 cells. The data set can be described thus: In vitro cytotoxicity assay (CCK-8). In kind it is cell-based. The conditions noted are these: Homo sapiens, A 172, 48 h incubation. On the procedure:
Human glioblastoma A172 cells (Nanjing KeyGen Biotech Co., Ltd., Nanjing, China) which overexpress folate receptor (Weitman et al., [1992]) were used. Cells were routinely cultured in DMEM medium (Invitrogen, Grand Island, NY, USA) supplemented with 10% fetal bovine serum (Gibco Life Science, Grand Island, NY, USA) and 1% streptomycin/penicillin in a humidified atmosphere of 5% CO2 at 37 °C. Cell passages were carried out according to the manufacturer’s instructions.
To evaluate the inhibitory effects of Pt in various formulations on A172 cells, cytotoxicity assay was carried out with CCK-8 kits. Cells were seeded into 96-well plates at a density of 5,000 cells per well, followed by incubation for 24 h. Cells were treated with free Pt solution (free Pt), Pt loaded micelles (Pt/M), folate modified Pt loaded micelles (F-Pt/M) and blank micelles (BM) at equivalent drug concentrations ranging from 5 μM to 100 μM and further incubated for 48 h. […] After 2 h of incubation at 37 °C, the absorbance intensity was measured by a microplate reader (Varioskan LUX; Thermo Scientific Inc., Vantaa, Finland) at 450 nm. Cell viability was calculated by the ratio between the fluorescence absorbance of the cells treated with various Pt formulations (or blank micelles) and that of the cells incubated with the culture medium only. The IC50 values were calculated by using SPSS 22.0 (IBM Corp., Armonk, NY).

Bounds are passed on as bounds.

A word on the Cmax: it is the peak of the concentration-time curve. As usually defined, the Tmax is the time at which the peak concentration occurs. By half-life is commonly meant the time in which the quantity being followed falls by half. Low values mean rapid decline, high ones slow decline. In general, IC50 refers to the point on the concentration scale where inhibition reaches its midpoint. A low value points to higher potency.

Regarding `COc1cc(/C=C/c2ccc(O)cc2)cc(OC)c1` [free Pt, 3,5-dimethoxy-4′-hydroxy-trans-stilbene], the “HR (hemolysis ratio)” value with red blood cells (RBCs) (high concentration of 0.5 mg/mL) is reported as 11.23%. The “HR (hemolysis ratio)” value with red blood cells (RBCs) (low concentration of 0.17 mg/mL) is reported as 6.46%. Moreover, in the data set with red blood cells (RBCs) (medium concentration of 0.33 mg/mL), the “HR (hemolysis ratio)” value stood at 10.39%. In data set [1], the solubility in water entry is “about 21 µg/mL”. In data set [2] (brain), the AUC0-t turned out to be 4369.66 ± 289.88 µg·min/L, the highest level (Cmax) was 78.1 ± 13.9 ng/mL, the Tmax is 35 min and the half-life is 22.4 ± 2.84 min. In data set [2] (plasma), the Cmax turned out to be 221 ± 21.6 ng/mL, the Tmax is 5 min, the half-life came to 114 ± 29.2 min and the AUC0-t came out at 10107.80 ± 976.65 µg·min/L. For the same molecule, in data set [3], the “time over which the drug was released” value is recorded as not above 5 h. The molecule further displayed an IC50 with A172 cells of 24.4 µM.

Source of the values: PMC9848421, “Increased brain uptake of pterostilbene loaded folate modified micellar delivery system” (Drug Delivery, 2022).
